Reference: US20130122541A1, “MICROORGANISM PRODUCTION OF HIGH-VALUE CHEMICAL PRODUCTS, AND RELATED COMPOSITIONS, METHODS AND SYSTEMS” (The Regents of the University of Colorado, priority 2010, published 2013)
Like-named read-outs stand apart in the source and are kept apart here.

Legend:
B. subtilis = experiment: MIC evaluation of 3-HP, B. subtilis aerobic, M9 media + glutamate, 96 well-plate, 24 h (Common Methods); assay type: cell-based
Protocol: For MIC evaluations, the final results are expressed in chemical agent concentrations determined by analysis of the stock solution by HPLC (i.e., see Subsection IIIb).
The minimum inhibitory concentration (MIC) was determined aerobically in a 96 well-plate format. […] Media supplements were added according to levels reported in the Supplements Table where specified. Overnight cultures of strains were grown in triplicate in 5 mL LB (with antibiotic where appropriate). A 1% (v/v) inoculum was introduced into a 5 ml culture of M9 minimal media+glutamate.

[1] = tested on: wild-type E. coli BW25113; experiment: Growth response to 3-HP (toleragram, OD600, doublings over 24 h), E. coli aerobic; assay type: cell-based; details: aerobic condition, FIG. 15B
Protocol: Overnight cultures of wild-type E. coli BW25113 were grown in triplicate in 5 mL standard LB medium. 100 uL of overnight cultures were used to inoculate triplicate 5 mL samples of M9 minimal medium+3HP, containing 47.7 mM Na2HPO4, 22 mM KH2PO4, 8.6 mM NaCl, 18.7 mM NH4Cl, 2 mM MgSO4, 0.1 mM CaCl2, and 0.4% glucose, with 3HP concentrations ranging from 0-50 g/L. Starting OD600 ranged from 0.02-0.08. Cultures were incubated at 37 C for about 24 hours, and OD600 was recorded every 1-2 hours for the first 8 hours with a final OD600 recorded at about 24 hours. Maximum specific growth rates (μmax) were calculated by determining the optimal fit of exponential trend lines with OD data for the evaluation period. Specific changes in OD600 over approximately 24 hours (Δ24 hrOD600) were calculated as the difference in t=24 hr and t=0 optical density, Δ24hOD600=(ODt=24)−(ODt=0). Specific number of doublings (Nd) were calculated by solving for N in the equation 2^N=(ODt=24)/(ODt=0).

[2] = tested on: Yeast strains (S288C background); experiment: microbe, parasite or virus in culture; assay type: cell-based, Saccharomyces cerevisiae; details: for MIC: Saccharomyces cerevisiae
Protocol: The minimum inhibitory concentration (MIC) was determined anaerobically in a 96 well-plate format. […] A 1% (v/v) inoculum was introduced into a 5 ml culture of SD minimal media without vitamins. After the cells reached mid-exponential phase, the culture was diluted to an OD600 of 0.200. The cells were further diluted 1:5 and a 10 μL aliquot was used to inoculate each well of a 96 well plate (˜10^4 cells per well) to total volume of 100 uL. […] Plates were incubated for 72 hours at 30 C. […] Plates were sealed in biobag anaerobic chambers that contained gas generators for anaerobic conditions and incubated for 72 hours at 30 C.

[3] = strain BSX_0003.0 (pWH1520), M9 + glu + trp + 1 mM Xylose

O=C(O)CCO [3-HP, 3-hydroxypropionic acid]
0.00: Avg 24 hr ΔOD600 (B. subtilis; [3])
38 g/L: MIC ([2]; read-out: Average MIC Assay Result (g/L 3-HP), S288C, SD media, supplements none (control), anaerobic)
50 g/L: MIC ([2]; read-out: MIC Assay Result (g/L 3-HP), strain YX-022 (BY4722, pyes2.1-Aro3 pRS425-ILV6), SD, anaerobic) | MIC ([2]; read-out: MIC Assay Result (g/L 3-HP), strain YX-CJR-007 (BY4709, pyes2.1-ILV6), SD, anaerobic) | MIC ([2]; read-out: MIC Assay Result (g/L 3-HP), strain YX-CJR-010 (BY4709, pyes2.1-Thr1), SD, anaerobic) | MIC ([2]; read-out: MIC Assay Result (g/L 3-HP), strain YX-CJR-011 (BY4709, pyes2.1-Ser2), SD, anaerobic) | MIC ([2]; read-out: MIC Assay Result (g/L 3-HP), strain YX-CJR-013 (BY4709, pyes2.1-ser3), SD, anaerobic) | MIC ([2]; read-out: MIC Assay Result (g/L 3-HP), strain YX-CJR-014 (BY4709, pyes2.1-arg2), SD, anaerobic) | MIC ([2]; read-out: MIC Assay Result (g/L 3-HP), strain YX-CJR-015 (BY4709, pyes2.1-RNR1), SD, anaerobic) | MIC ([2]; read-out: MIC Assay Result (g/L 3-HP), strain YX-CJR-016 (BY4709, pyes2.1-Aro3), SD, anaerobic) | MIC ([2]; read-out: MIC Assay Result (g/L 3-HP), strain YX-CJR-018 (BY4709, pyes2.1-Tyr1), SD, anaerobic) | MIC ([2]; read-out: MIC Assay Result (g/L 3-HP), strain YX-CJR-021 (BY4709, pYes2.1-Trp1), SD, anaerobic)
25%: % Increase Over Control ([2]; strain YX-022 (pyes2.1-Aro3 pRS425-ILV6) vs control, anaerobic) | % Increase Over Control ([2]; strain YX-CJR-007 (pyes2.1-ILV6) vs YX-CJR-001, anaerobic) | % Increase Over Control ([2]; strain YX-CJR-010 (pyes2.1-Thr1) vs YX-CJR-001, anaerobic) | % Increase Over Control ([2]; strain YX-CJR-011 (pyes2.1-Ser2) vs YX-CJR-001, anaerobic) | % Increase Over Control ([2]; strain YX-CJR-013 (pyes2.1-ser3) vs YX-CJR-001, anaerobic) | % Increase Over Control ([2]; strain YX-CJR-014 (pyes2.1-arg2) vs YX-CJR-001, anaerobic) | % Increase Over Control ([2]; strain YX-CJR-015 (pyes2.1-RNR1) vs YX-CJR-001, anaerobic) | % Increase Over Control ([2]; strain YX-CJR-016 (pyes2.1-Aro3) vs YX-CJR-001, anaerobic) | % Increase Over Control ([2]; strain YX-CJR-018 (pyes2.1-Tyr1) vs YX-CJR-001, anaerobic) | % Increase Over Control ([2]; strain YX-CJR-021 (pYes2.1-Trp1) vs YX-CJR-001, anaerobic)
0%: % Increase Over Control (B. subtilis; B. subtilis 168, M9 + glu + trp, supplements none (control)) | % Increase Over Control (B. subtilis; [3]) | % Increase Over Control ([2]; S288C, SD media, supplements none (control), anaerobic)
0.06: Avg 24 hr ΔOD600 (B. subtilis; strain BSX_0015.0 (pWH1520-Pxyl:metE region), M9 + glu + trp + 1 mM Xylose)
30 g/L: 3-HP concentration at which a dramatic reduction in cell density (OD600) at 24 hours starts [1]
40 g/L: MIC ([2]; read-out: MIC Assay Result (g/L 3-HP), strain YX-CJR-001 (BY4709, pRS426 EV, control), SD, anaerobic)
0.07: Avg 24 hr ΔOD600 (B. subtilis; strain BSX_0011.0 (pWH1520-Pxyl:speB region), M9 + glu + trp + 1 mM Xylose)
60 g/L: MIC ([2]; read-out: MIC Assay Result (g/L 3-HP), strain YX-CJR-005 (BY4709, pYes2.1-Met6), SD, anaerobic) | MIC ([2]; read-out: MIC Assay Result (g/L 3-HP), strain YX-CJR-008 (BY4709, pyes2.1-ILV1), SD, anaerobic)
50%: % Increase Over Control ([2]; strain YX-CJR-005 (pYes2.1-Met6) vs YX-CJR-001, anaerobic) | % Increase Over Control ([2]; strain YX-CJR-008 (pyes2.1-ILV1) vs YX-CJR-001, anaerobic)
